Experiments:
E. coli DHOase = conditions: cited from earlier work
[1] = molecular target: WT-DHOase (B. anthracis DHOase) (Bacillus anthracis, UniProt Q81WF0); format: biochemical
B. anthracis DHOase [2] = molecular target: T1, B. anthracis DHOase (Bacillus anthracis, UniProt Q81WF0); format: binding; conditions: for KD (equilibrium dissociation constant determined by SPR): 25 °C
B. anthracis DHOase [3] = molecular target: T1, B. anthracis DHOase; format: binding
B. anthracis DHOase [4] = molecular target: T1, B. anthracis DHOase; conditions: cited from earlier work

T1 sequence (Q81WF0 whole entry, looked up): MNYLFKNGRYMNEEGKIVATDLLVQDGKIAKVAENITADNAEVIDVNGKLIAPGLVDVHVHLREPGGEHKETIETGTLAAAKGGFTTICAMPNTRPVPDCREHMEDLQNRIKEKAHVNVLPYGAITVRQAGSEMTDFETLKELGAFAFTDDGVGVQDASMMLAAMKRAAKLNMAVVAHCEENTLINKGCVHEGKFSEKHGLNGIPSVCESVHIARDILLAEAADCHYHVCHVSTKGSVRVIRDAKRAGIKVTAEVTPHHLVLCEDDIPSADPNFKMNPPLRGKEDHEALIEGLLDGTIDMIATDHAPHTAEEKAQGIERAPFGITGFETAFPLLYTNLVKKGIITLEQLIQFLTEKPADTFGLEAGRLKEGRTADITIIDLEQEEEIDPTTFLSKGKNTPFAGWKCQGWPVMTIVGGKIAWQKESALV
Sequence of WT-DHOase (B. anthracis DHOase) (Q81WF0 whole entry, looked up): as above

## NC(=O)N[C@@H](CC(=O)O)C(=O)O [Ca-asp, carbamyl-asparate]
E. coli DHOase
  Km: 1700 µM
  kcat: 160 ± 8 s⁻¹
[1]
  Km: 112 ± 24 µM
  kcat: 2.1 ± 0.1 s⁻¹

## O=C1CC(C(=O)O)NC(=O)N1 (stereo not shown) [DHO, dihydroorotate]
E. coli DHOase
  Km: 80 µM
  kcat: 100 ± 1.6 s⁻¹
[1]
  Km: 114 ± 16 µM
  kcat: 1.9 ± 0.1 s⁻¹

## COc1ccc2[nH]c3c(c2c1)CCNC3(NC#N)SC (stereo not shown) [Compound 7a]
B. anthracis DHOase [2]
  fold change of KD relative to compound 6: 18 fold

## CCC(=O)Nc1ccc(OC)cc1OC [Compound 4]
B. anthracis DHOase [3]
  shift in melting temperature (Tm): shows a shift in melting temperature
B. anthracis DHOase [2]
  KD with 1 mM Ca-asp: remained the same

## Nc1c(C(=O)O)[nH]c(=O)[nH]c1=O [5-aminoorotate (AOA), 5-aminoorotate]
B. anthracis DHOase [4]
  inhibition of B. anthracis DHOase: no inhibition

## CSC1(NC#N)NCCc2c1[nH]c1ccc(F)cc21 (stereo not shown) [Compound 7]
B. anthracis DHOase [2]
  KD with 1 mM Ca-asp: unable to be determined

## COc1ccc2[nH]c3c(c2c1)CN(C(C)=O)CC3 [Compound 8]
B. anthracis DHOase [2]
  KD (equilibrium dissociation constant determined by SPR): weaker

## COc1ccc2[nH]c3c(c2c1)CCNC3 [Compound 6a]
B. anthracis DHOase [2]
  KD with 1 mM Ca-asp: not affected
  fold change of KD relative to compound 6: ~ 1.5 fold

## COc1ccc2[nH]c(CN)cc2c1 [Compound 6c]
B. anthracis DHOase [2]
  KD (equilibrium dissociation constant determined by SPR): no interaction

## Cc1ccc2[nH]c3c(c2c1)CCNC3 [Compound 6b]
B. anthracis DHOase [2]
  KD (equilibrium dissociation constant determined by SPR): completely abolished

## O=C(O)c1[nH]c(=O)[nH]c(=O)c1F [5-fluoroorotate (FOA), 5-fluoroorotate]
B. anthracis DHOase [4]
  inhibition of B. anthracis DHOase: no inhibition
